According to PubChem BioAssay AID2060503 (Molecular Pharmacology Branch, DTP, NCI, 2025):

Tested on: 817829-284-R-J1-PDC complex spheroids, viability
Experiment: Anticancer human tumor 817829-284-R-J1-PDC patient-derived colon adenocarcinoma cell line growth inhibition [GQUAD]
Details: for IC50: curve of first compound; for viability, T/C: stronger effect = lower value; active = viability on the fitted dose curve at most 10% of control; inactive = the rest
How it was run: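 Viability of tumor cells grown as complex spheroids with endothelial and stromal cells, exposed to drug combinations. Top concentration at or near clinical Cmax (else 10 microM), diluted in half-log increments.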

[1] = second compound 0.0316 µM, first compound 0.0316 µM
[2] = second compound 0.0316 µM, first compound 0.1 µM
[3] = second compound 0.0316 µM, first compound 0.316 µM
[4] = second compound 0.0316 µM, first compound 1 µM
[5] = second compound 0.0316 µM, first compound 3.16 µM
[6] = second compound 0.0316 µM, first compound 10 µM
[7] = second compound 0.1 µM, first compound 0.0316 µM
[8] = second compound 0.1 µM, first compound 0.1 µM
[9] = second compound 0.1 µM, first compound 0.316 µM
[10] = second compound 0.1 µM, first compound 1 µM
[11] = second compound 0.1 µM, first compound 3.16 µM
[12] = second compound 0.1 µM, first compound 10 µM
[13] = second compound 0.316 µM, first compound 0.0316 µM
[14] = second compound 0.316 µM, first compound 0.1 µM
[15] = second compound 0.316 µM, first compound 0.316 µM
[16] = second compound 0.316 µM, first compound 1 µM
[17] = second compound 0.316 µM, first compound 3.16 µM
[18] = second compound 0.316 µM, first compound 10 µM
[19] = second compound 1 µM, first compound 0.0316 µM
[20] = second compound 1 µM, first compound 0.1 µM
[21] = second compound 1 µM, first compound 0.316 µM
[22] = second compound 1 µM, first compound 1 µM
[23] = second compound 1 µM, first compound 3.16 µM
[24] = second compound 1 µM, first compound 10 µM
[25] = second compound 3.16 µM, first compound 0.0316 µM
[26] = second compound 3.16 µM, first compound 0.1 µM
[27] = second compound 3.16 µM, first compound 0.316 µM
[28] = second compound 3.16 µM, first compound 1 µM
[29] = second compound 3.16 µM, first compound 3.16 µM
[30] = second compound 3.16 µM, first compound 10 µM
[31] = second compound 10 µM, first compound 0.0316 µM
[32] = second compound 10 µM, first compound 0.1 µM
[33] = second compound 10 µM, first compound 0.316 µM
[34] = second compound 10 µM, first compound 1 µM
[35] = second compound 10 µM, first compound 3.16 µM
[36] = second compound 10 µM, first compound 10 µM
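Note: spheroids exposed to agents for 7 days before readout.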
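Throughout, for viability, T/C: percent viability relative to DMSO vehicle control taken as 100%.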

C#Cc1c(F)ccc2cc(O)cc(-c3ncc4c(N5CC6CCC(C5)N6)nc(OCC56CCCN5CC(F)C6)nc4c3F)c12 (stereo unspecified) + Cc1[nH]c2ccc(F)cc2c1-c1nc2c3cccnc3c3ncccc3c2[nH]1
inactive: viability, T/C [1] 96.1% | viability, T/C [2] 95% | viability, T/C [3] 96.2% | viability, T/C [4] 90.4% | viability, T/C [5] 98% | viability, T/C [6] 118% | viability, T/C [7] 97.6% | viability, T/C [8] 108% | viability, T/C [9] 88.2% | viability, T/C [10] 102% | viability, T/C [11] 91.1% | viability, T/C [12] 108% | viability, T/C [13] 91% | viability, T/C [14] 96.1% | viability, T/C [15] 99.7% | viability, T/C [16] 86.6% | viability, T/C [17] 98.8% | viability, T/C [18] 81.1% | viability, T/C [19] 102% | viability, T/C [20] 90.4% | viability, T/C [21] 103% | viability, T/C [22] 93% | viability, T/C [23] 94.5%
active: viability, T/C [24] 4.87% | viability, T/C [25] 3.89% | viability, T/C [26] 4.3% | viability, T/C [27] 3.9% | viability, T/C [28] 3.3% | viability, T/C [29] 1.62% | viability, T/C [30] 0.11% | viability, T/C [31] 3% | viability, T/C [32] 12.8% | viability, T/C [33] 3.04% | viability, T/C [34] 2.02% | viability, T/C [35] 2.19% | viability, T/C [36] 0.17%
< 31.6 nM: IC50 (second compound 3.16 µM) | IC50 (second compound 10 µM)
5600 nM: IC50 (second compound 1 µM)
> 10000 nM: IC50 (second compound 0.0316 µM) | IC50 (second compound 0.1 µM) | IC50 (second compound 0.316 µM)

C=CCn1c(=O)c2cnc(Nc3ccc(N4CCN(C)CC4)cc3)nc2n1-c1cccc(C(C)(C)O)n1 + Cc1[nH]c2ccc(F)cc2c1-c1nc2c3cccnc3c3ncccc3c2[nH]1
221 nM: IC50 (second compound 1 µM)
220 nM: IC50 (second compound 0.0316 µM)
inactive: viability, T/C [1] 101% | viability, T/C [2] 92.9% | viability, T/C [3] 30.2% | viability, T/C [7] 82.1% | viability, T/C [8] 111% | viability, T/C [9] 35.2% | viability, T/C [13] 97.2% | viability, T/C [14] 109% | viability, T/C [15] 38.9% | viability, T/C [19] 104% | viability, T/C [20] 103% | viability, T/C [21] 26.2% | viability, T/C [25] 46.1% | viability, T/C [26] 30.2% | viability, T/C [31] 28.6% | viability, T/C [32] 14.8%
240 nM: IC50 (second compound 0.1 µM)
< 31.6 nM: IC50 (second compound 3.16 µM) | IC50 (second compound 10 µM)
active: viability, T/C [4] 8.8% | viability, T/C [5] 6.61% | viability, T/C [6] 5.37% | viability, T/C [10] 7.33% | viability, T/C [11] 6.25% | viability, T/C [12] 4.08% | viability, T/C [16] 8.37% | viability, T/C [17] 6.05% | viability, T/C [18] 4.81% | viability, T/C [22] 8.6% | viability, T/C [23] 6.38% | viability, T/C [24] 4.1% | viability, T/C [27] 8.17% | viability, T/C [28] 5.38% | viability, T/C [29] 4.83% | viability, T/C [30] 4.49% | viability, T/C [33] 6.57% | viability, T/C [34] 4.68% | viability, T/C [35] 5.07% | viability, T/C [36] 4.08%
259 nM: IC50 (second compound 0.316 µM)

CC(=O)O[C@H]1C(=O)[C@@]2(C)[C@H]([C@H](OC(=O)c3ccccc3)[C@]3(O)C[C@H](OC(=O)[C@H](O)[C@@H](NC(=O)c4ccccc4)c4ccccc4)C(C)=C1C3(C)C)[C@]1(OC(C)=O)CO[C@@H]1C[C@@H]2O + Cc1[nH]c2ccc(F)cc2c1-c1nc2c3cccnc3c3ncccc3c2[nH]1
active: viability, T/C [1] 7.69% | viability, T/C [2] 5% | viability, T/C [3] 4.12% | viability, T/C [4] 4.33% | viability, T/C [5] 3.69% | viability, T/C [6] 5.32% | viability, T/C [7] 6.62% | viability, T/C [8] 5.4% | viability, T/C [9] 5.3% | viability, T/C [10] 3.81% | viability, T/C [11] 4.86% | viability, T/C [12] 4.62% | viability, T/C [13] 7.16% | viability, T/C [14] 5.87% | viability, T/C [15] 4.46% | viability, T/C [16] 3.72% | viability, T/C [17] 4.25% | viability, T/C [18] 5.31% | viability, T/C [19] 7.59% | viability, T/C [20] 6.66% | viability, T/C [21] 6.33% | viability, T/C [22] 6.63% | viability, T/C [23] 6.34% | viability, T/C [24] 6.37% | viability, T/C [25] 3.48% | viability, T/C [26] 4.37% | viability, T/C [27] 3.76% | viability, T/C [28] 3.37% | viability, T/C [29] 3.38% | viability, T/C [30] 3.67% | viability, T/C [31] 3.27% | viability, T/C [32] 3.76% | viability, T/C [33] 3.43% | viability, T/C [34] 2.91% | viability, T/C [35] 3.42% | viability, T/C [36] 3.04%
< 31.6 nM: IC50 (second compound 0.0316 µM) | IC50 (second compound 0.1 µM) | IC50 (second compound 0.316 µM) | IC50 (second compound 1 µM) | IC50 (second compound 3.16 µM) | IC50 (second compound 10 µM)
